Like-named read-outs stand apart in the source and are kept apart here.
How the values were obtained:
Test in all cases: Radiometric protein kinase assay (33PanQinase Activity Assay)
Type in all cases: biochemical
[1] = target: T1, COT (Homo sapiens, UniProt P41279)
T1 construct: made in house; host or cells: Sf9 insect cells (baculovirus)
Text: (§1) AKTI1, ARK5, Aurora-A, Aurora-B, B-RAF-VE, CDK2/CycA, CDK4/CycD1, CK2-alpha1 (catalytic subunit of CK2), EGF-R, EPHB4, ERBB2, FAK, IGF1-R, SRC, VEGF-R2, VEGF-R3, FLT3, INS-R, MET, PDGFR-beta, PLK1, SAK, TIE2, COT.
(§2) All the protein kinases were expressed in Sf9 insect cells as human recombinant GST fusion proteins or His-tagged proteins by the baculovirus expression system. Kinases were purified by affinity chromatography either by GSH-agarose (Sigma) or Ni—NTH-agarose (Qiagen). The purity of the kinases was tested by SDS-PAGE/silver staining, and the identity of the kinases was verified by Western blot analysis with specific antibodies or mass spectroscopy.
(§3) A radiometric protein kinase assay (33PanQinase® Activity Assay) was used to measure the kinase activity for the 24 protein kinases. The kinase assays were carried out in 96-well FlashPlates™ from Perkin Elmer/NEN (Boston, Mass., USA) in a reaction volume of 50 μl. The reaction mixture was pipetted in 4 steps in the following sequence: • 20 μl of assay buffer • 5 μl of ATP solution (in H2O) • 5 μl of test compound (in 10% DMSO) • 10 μl of substrate/10 μl of enzyme solution (premixed)
(§4) The assays for all the enzymes contained 60 mM HEPES-NaOH, pH 7.5, 3 mM MgCl2, 3 mM MnCl2, 3 μM Na orthovanadate, 1.2 mM DTT, 50 μg/ml PEG20000, 1 μM [γ-^33P]-ATP (about 5×10^5 cpm per well).
(§5) The reaction mixture was incubated at 30° C. for 80 minutes. The reaction was stopped with 50 μl of 2% (v/v) H3PO4. The plates were aspirated and washed twice with 200 μl of 0.9% (w/v) NaCl. The incorporation of ^33Pi was determined using a microtiter plates scintillation counter (Microbeta Trilux, Wallac).

[2] = target: T2, FLT3 (Homo sapiens, UniProt P36888)
T2 construct: made in house; host or cells: Sf9 insect cells, baculovirus
T2 sequence (P36888 27-993): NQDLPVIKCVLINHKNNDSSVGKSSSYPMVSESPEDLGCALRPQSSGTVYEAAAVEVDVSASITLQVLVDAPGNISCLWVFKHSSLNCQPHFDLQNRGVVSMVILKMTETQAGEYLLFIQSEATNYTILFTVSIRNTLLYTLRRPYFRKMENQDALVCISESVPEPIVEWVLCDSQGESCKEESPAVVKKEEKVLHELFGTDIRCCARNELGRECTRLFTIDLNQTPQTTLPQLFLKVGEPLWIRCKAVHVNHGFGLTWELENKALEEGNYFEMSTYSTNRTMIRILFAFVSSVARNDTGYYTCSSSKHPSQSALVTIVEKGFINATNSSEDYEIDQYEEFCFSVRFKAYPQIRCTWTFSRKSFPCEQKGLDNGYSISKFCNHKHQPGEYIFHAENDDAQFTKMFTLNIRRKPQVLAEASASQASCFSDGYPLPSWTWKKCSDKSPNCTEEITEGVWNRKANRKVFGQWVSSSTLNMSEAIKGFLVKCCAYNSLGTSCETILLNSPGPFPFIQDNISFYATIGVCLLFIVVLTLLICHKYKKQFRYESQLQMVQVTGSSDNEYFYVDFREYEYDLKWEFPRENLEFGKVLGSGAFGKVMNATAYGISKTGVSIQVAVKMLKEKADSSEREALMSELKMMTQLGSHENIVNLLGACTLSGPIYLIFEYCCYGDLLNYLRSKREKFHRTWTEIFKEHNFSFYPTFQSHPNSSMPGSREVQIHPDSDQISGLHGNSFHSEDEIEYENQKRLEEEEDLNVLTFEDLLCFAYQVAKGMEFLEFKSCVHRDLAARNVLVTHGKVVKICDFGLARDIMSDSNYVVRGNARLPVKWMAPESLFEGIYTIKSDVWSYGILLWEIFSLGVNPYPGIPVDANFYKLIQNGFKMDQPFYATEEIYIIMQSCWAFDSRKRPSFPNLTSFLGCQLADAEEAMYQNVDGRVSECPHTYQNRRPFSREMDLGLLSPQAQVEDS
Text: as §1, §2, §3, §4, §5

[3] = target: T3, SAK (Homo sapiens, UniProt O00444)
T3 construct: made in house; host or cells: Sf9 insect cells, baculovirus
T3 sequence (O00444 1-970): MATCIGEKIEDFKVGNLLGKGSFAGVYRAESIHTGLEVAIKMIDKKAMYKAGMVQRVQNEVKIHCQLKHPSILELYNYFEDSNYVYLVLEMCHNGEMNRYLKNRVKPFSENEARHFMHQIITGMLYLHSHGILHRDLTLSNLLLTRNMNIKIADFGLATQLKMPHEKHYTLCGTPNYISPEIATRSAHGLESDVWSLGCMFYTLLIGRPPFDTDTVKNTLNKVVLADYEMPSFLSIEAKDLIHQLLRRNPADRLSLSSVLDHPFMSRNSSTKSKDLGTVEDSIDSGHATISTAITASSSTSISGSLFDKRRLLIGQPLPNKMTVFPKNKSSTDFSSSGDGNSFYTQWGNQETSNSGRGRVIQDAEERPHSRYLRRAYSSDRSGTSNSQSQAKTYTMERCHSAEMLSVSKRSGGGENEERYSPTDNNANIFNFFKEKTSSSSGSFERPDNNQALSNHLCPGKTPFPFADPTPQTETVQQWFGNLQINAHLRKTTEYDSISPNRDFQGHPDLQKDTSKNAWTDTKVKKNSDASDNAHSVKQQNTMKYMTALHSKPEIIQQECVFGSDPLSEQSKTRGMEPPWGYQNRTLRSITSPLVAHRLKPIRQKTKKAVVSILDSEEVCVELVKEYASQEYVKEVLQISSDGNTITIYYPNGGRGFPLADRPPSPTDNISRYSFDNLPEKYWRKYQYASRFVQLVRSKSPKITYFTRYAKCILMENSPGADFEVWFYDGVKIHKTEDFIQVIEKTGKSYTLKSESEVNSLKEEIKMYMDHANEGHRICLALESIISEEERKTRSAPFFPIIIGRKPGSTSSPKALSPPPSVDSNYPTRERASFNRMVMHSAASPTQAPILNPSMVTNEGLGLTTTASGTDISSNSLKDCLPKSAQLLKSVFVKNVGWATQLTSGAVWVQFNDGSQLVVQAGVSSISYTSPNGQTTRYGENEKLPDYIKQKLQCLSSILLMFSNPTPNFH
Text: as §1, §2, §3, §4, §5

[4] = target: T4, SRC (Homo sapiens, UniProt P12931)
T4 construct: made in house; host or cells: Sf9 insect cells, baculovirus
Text: as §1, §2, §3, §4, §5

[5] = 1 μM ATP, autophosphorylation, read-out: IC50 values [μM] COT
[6] = 1 μM ATP, read-out: IC50 values [μM] FLT3
[7] = 1 μM ATP, read-out: IC50 values [μM] SAK
[8] = 1 μM ATP, read-out: IC50 values [μM] SRC

T4 sequence (P12931 whole entry): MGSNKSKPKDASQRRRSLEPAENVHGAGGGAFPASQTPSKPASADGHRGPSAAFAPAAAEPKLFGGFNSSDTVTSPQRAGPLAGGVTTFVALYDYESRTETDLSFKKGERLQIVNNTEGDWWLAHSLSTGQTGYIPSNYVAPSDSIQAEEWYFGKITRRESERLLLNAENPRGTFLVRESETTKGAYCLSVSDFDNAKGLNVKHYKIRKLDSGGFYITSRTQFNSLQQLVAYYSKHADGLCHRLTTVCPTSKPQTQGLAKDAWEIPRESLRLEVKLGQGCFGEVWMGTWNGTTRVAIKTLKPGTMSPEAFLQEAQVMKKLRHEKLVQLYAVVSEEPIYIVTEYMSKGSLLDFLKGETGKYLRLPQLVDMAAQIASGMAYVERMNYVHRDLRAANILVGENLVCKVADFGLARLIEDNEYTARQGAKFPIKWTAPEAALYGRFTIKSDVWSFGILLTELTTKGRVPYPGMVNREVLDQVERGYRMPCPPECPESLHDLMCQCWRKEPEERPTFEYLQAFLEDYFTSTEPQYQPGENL
T1 sequence (P41279 whole entry): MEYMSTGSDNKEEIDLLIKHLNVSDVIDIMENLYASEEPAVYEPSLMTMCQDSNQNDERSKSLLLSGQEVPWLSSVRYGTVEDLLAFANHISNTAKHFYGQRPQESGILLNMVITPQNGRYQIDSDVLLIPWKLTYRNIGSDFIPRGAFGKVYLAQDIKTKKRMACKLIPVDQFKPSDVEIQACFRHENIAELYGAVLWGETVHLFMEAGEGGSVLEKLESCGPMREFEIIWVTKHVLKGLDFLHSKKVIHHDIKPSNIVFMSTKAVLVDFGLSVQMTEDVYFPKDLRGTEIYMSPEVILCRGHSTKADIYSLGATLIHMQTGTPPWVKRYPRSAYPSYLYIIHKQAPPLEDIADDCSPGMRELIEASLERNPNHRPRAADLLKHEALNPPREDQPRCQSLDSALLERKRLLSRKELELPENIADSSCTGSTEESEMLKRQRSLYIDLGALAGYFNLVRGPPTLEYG

SMILES	IC50 [1] [µM]	IC50 [2] [µM]	IC50 [3] [µM]	IC50 [4] [µM]	IC50 [1, 5] [µM]	IC50 [2, 6] [µM]	IC50 [3, 7] [µM]	IC50 [4, 8] [µM]
CC(C)n1c2c(c3c1-c1ccccc1C3=O)C(=O)CCC2 [Compound 4b, 5-Isopropyl-5,6,7,8-tetrahydroindeno[1,2-b]indole-9,10-dione]	> 10	> 10	> 10	> 10	–	–	–	–
O=c1ccc(=O)c2c1c1c(=O)c3ccccc3c1n2Cc1ccccc1 [Compound 6c, 5-Benzyl 5,6,9,10-tetrahydroindeno[1,2-b]indole-6,9,10-trione]	–	–	–	–	4.4	9.2	3.9	0.8
CC(C)n1c2c(=O)ccc(=O)c2c2c(=O)c3ccccc3c21 [Compound 6b, 5-Isopropyl-5H-indeno[1,2-b]indole-6,9,10-trione]	–	–	–	–	9.3	0.051	1.7	1.6

Reference: patent publication US8133913B2, “Substituted indeno [1,2-b]indole derivatives as novel inhibitors of protein kinase CK2 and their use as tumor therapeutic agents, cytostatics and diagnostic aids” (Heinrich-Heine Universitat Dusseldof, priority 2006, dated 2012)
